# Experimental data from US4740601A, “Imidazole derivatives having antimicrobial activities” (SS Pharmaceutical Co., Ltd., priority 1985, dated 1988).
# Test system: Streptococcus faecalis IFO 12964
# Experiment: antimicrobial activity, MIC
# Assay type: cell-based
# Conditions: Enterococcus faecalis, IFO12964, Streptococcus faecalis IFO 12964; read-out: MIC
row,Compound,MIC
1,"CCCOc1ccccc1C(=CSc1ccccc1)n1ccnc1 (single isomer, unassigned) [Compound 64]",25 µg/mL
2,"CCCCSC=C(c1ccccc1OCCC)n1ccnc1 (single isomer, unassigned) [Compound 46]",12.5 µg/mL

# Test system: Candida albicans Yu-1200
# Experiment: antimicrobial activity, MIC
# Assay type: cell-based
# Conditions: YU1200, read-out: MIC
row,Compound,MIC
1,"CCCOc1ccccc1C(=CSc1ccccc1)n1ccnc1 (single isomer, unassigned) [Compound 64]",> 100 µg/mL
2,"CCCCSC=C(c1ccccc1OCCC)n1ccnc1 (single isomer, unassigned) [Compound 46]",50 µg/mL

# Test system: Fusarium moniliforme IAM 5062
# Experiment: antimicrobial activity, MIC
# Assay type: cell-based
# Conditions: Fusarium verticillioides, IAM5062, Fusarium moniliforme IAM 5062; read-out: MIC
row,Compound,MIC
1,"CCCOc1ccccc1C(=CSc1ccccc1)n1ccnc1 (single isomer, unassigned) [Compound 64]",50 µg/mL
2,"CCCCSC=C(c1ccccc1OCCC)n1ccnc1 (single isomer, unassigned) [Compound 46]",1.56 µg/mL

# Test system: Staphylococcus aureus Terajima
# Experiment: antimicrobial activity, MIC
# Assay type: cell-based
# Conditions: Staphylococcus aureus, read-out: MIC
row,Compound,MIC
1,"CCCOc1ccccc1C(=CSc1ccccc1)n1ccnc1 (single isomer, unassigned) [Compound 64]",6.25 µg/mL
2,"CCCCSC=C(c1ccccc1OCCC)n1ccnc1 (single isomer, unassigned) [Compound 46]",12.5 µg/mL

# Test system: Epidermophyton floccosum IFO 9045
# Experiment: antimicrobial activity, MIC
# Assay type: cell-based
# Conditions: Epidermophyton floccosum IFO 9045
row,Compound,MIC
1,"CCCOc1ccccc1C(=CSc1ccccc1)n1ccnc1 (single isomer, unassigned) [Compound 64]",6.25 µg/mL

# Same assay, conditions: Epidermophyton floccosum, IFO9045, Epidermophyton floccosum IFO 9045; read-out: MIC
row,Compound,MIC
1,"CCCCSC=C(c1ccccc1OCCC)n1ccnc1 (single isomer, unassigned) [Compound 46]",1.56 µg/mL

# Test system: Microsporum gypseum IFO 8231
# Experiment: antimicrobial activity, MIC
# Assay type: cell-based
# Conditions: Nannizzia gypsea, IFO8231, Microsporum gypseum IFO 8231; read-out: MIC
row,Compound,MIC
1,"CCCOc1ccccc1C(=CSc1ccccc1)n1ccnc1 (single isomer, unassigned) [Compound 64]",6.25 µg/mL
2,"CCCCSC=C(c1ccccc1OCCC)n1ccnc1 (single isomer, unassigned) [Compound 46]",< 0.2 µg/mL

# Test system: Bacillus subtilis ATCC 6633
# Experiment: antimicrobial activity, MIC
# Assay type: cell-based
# Conditions: Bacillus subtilis ATCC 6633
row,Compound,MIC
1,"CCCOc1ccccc1C(=CSc1ccccc1)n1ccnc1 (single isomer, unassigned) [Compound 64]",6.25 µg/mL

# Same assay, conditions: Bacillus subtilis, ATCC6633, Bacillus subtilis ATCC 6633; read-out: MIC
row,Compound,MIC
1,"CCCCSC=C(c1ccccc1OCCC)n1ccnc1 (single isomer, unassigned) [Compound 46]",6.25 µg/mL

# Test system: Gibberella fujikuroi IAM 8046
# Experiment: antimicrobial activity, MIC
# Assay type: cell-based
# Conditions: Fusarium fujikuroi, IAM8046, Gibberella fujikuroi IAM 8046; read-out: MIC
row,Compound,MIC
1,"CCCCSC=C(c1ccccc1OCCC)n1ccnc1 (single isomer, unassigned) [Compound 46]",0.39 µg/mL

# Same assay, conditions: Gibberella fujikuroi IAM 8046
row,Compound,MIC
1,"CCCOc1ccccc1C(=CSc1ccccc1)n1ccnc1 (single isomer, unassigned) [Compound 64]",25 µg/mL

# Test system: Staphylococcus aureus FDA 209P
# Experiment: antimicrobial activity, MIC
# Assay type: cell-based
# Conditions: Staphylococcus aureus, FDA209P, read-out: MIC
row,Compound,MIC
1,"CCCOc1ccccc1C(=CSc1ccccc1)n1ccnc1 (single isomer, unassigned) [Compound 64]",25 µg/mL
2,"CCCCSC=C(c1ccccc1OCCC)n1ccnc1 (single isomer, unassigned) [Compound 46]",12.5 µg/mL

# Test system: Helminthosporium sesamum IAM 5012
# Experiment: antimicrobial activity, MIC
# Assay type: cell-based
# Conditions: Helminthosporium sesamum IAM 5012
row,Compound,MIC
1,"CCCOc1ccccc1C(=CSc1ccccc1)n1ccnc1 (single isomer, unassigned) [Compound 64]",6.25 µg/mL

# Same assay, conditions: Helminthosporium, IAM5012, Helminthosporium sesamum IAM 5012; read-out: MIC
row,Compound,MIC
1,"CCCCSC=C(c1ccccc1OCCC)n1ccnc1 (single isomer, unassigned) [Compound 46]",1.56 µg/mL

# Test system: Staphylococcus epidermidis ATCC 12228
# Experiment: antimicrobial activity, MIC
# Assay type: cell-based
# Conditions: Staphylococcus epidermidis, ATCC12228, Staphylococcus epidermidis ATCC 12228; read-out: MIC
row,Compound,MIC
1,"CCCOc1ccccc1C(=CSc1ccccc1)n1ccnc1 (single isomer, unassigned) [Compound 64]",6.25 µg/mL
2,"CCCCSC=C(c1ccccc1OCCC)n1ccnc1 (single isomer, unassigned) [Compound 46]",6.25 µg/mL

# Test system: Cladosporium fulvum IAM 5006
# Experiment: antimicrobial activity, MIC
# Assay type: cell-based
# Conditions: Fulvia fulva, IAM5006, Cladosporium fulvum IAM 5006; read-out: MIC
row,Compound,MIC
1,"CCCOc1ccccc1C(=CSc1ccccc1)n1ccnc1 (single isomer, unassigned) [Compound 64]",> 100 µg/mL
2,"CCCCSC=C(c1ccccc1OCCC)n1ccnc1 (single isomer, unassigned) [Compound 46]",12.5 µg/mL

# Test system: Pyricularia oryzae IAM 5016
# Experiment: microbe, parasite or virus in culture
# Assay type: cell-based
# Conditions: Pyricularia oryzae IAM 5016
row,Compound,MIC
1,"CCCOc1ccccc1C(=CSc1ccccc1)n1ccnc1 (single isomer, unassigned) [Compound 64]",< 0.2 µg/mL

# Same assay, conditions: Pyricularia oryzae, IAM5016, Pyricularia oryzae IAM 5016
row,Compound,MIC
1,"CCCCSC=C(c1ccccc1OCCC)n1ccnc1 (single isomer, unassigned) [Compound 46]",< 0.2 µg/mL

# Test system: Trichophyton mentagrophytes QM 248
# Experiment: antimicrobial activity, MIC
# Assay type: cell-based
# Conditions: Trichophyton mentagrophytes QM 248
row,Compound,MIC
1,"CCCOc1ccccc1C(=CSc1ccccc1)n1ccnc1 (single isomer, unassigned) [Compound 64]",0.78 µg/mL

# Same assay, conditions: Trichophyton mentagrophytes, QM248, Trichophyton mentagrophytes QM 248; read-out: MIC
row,Compound,MIC
1,"CCCCSC=C(c1ccccc1OCCC)n1ccnc1 (single isomer, unassigned) [Compound 46]",< 0.2 µg/mL

# Test system: Penicillium chrysogenum ATCC 6010
# Experiment: antimicrobial activity, MIC
# Assay type: cell-based
# Conditions: Penicillium chrysogenum ATCC 6010
row,Compound,MIC
1,"CCCOc1ccccc1C(=CSc1ccccc1)n1ccnc1 (single isomer, unassigned) [Compound 64]",12.5 µg/mL

# Same assay, conditions: Penicillium chrysogenum, ATCC6010, Penicillium chrysogenum ATCC 6010; read-out: MIC
row,Compound,MIC
1,"CCCCSC=C(c1ccccc1OCCC)n1ccnc1 (single isomer, unassigned) [Compound 46]",1.56 µg/mL

# Test system: Debaryomyces kloeckeri IFO 0015
# Experiment: antimicrobial activity, MIC
# Assay type: cell-based
# Conditions: IFO0015, read-out: MIC
row,Compound,MIC
1,"CCCOc1ccccc1C(=CSc1ccccc1)n1ccnc1 (single isomer, unassigned) [Compound 64]",> 100 µg/mL
2,"CCCCSC=C(c1ccccc1OCCC)n1ccnc1 (single isomer, unassigned) [Compound 46]",12.5 µg/mL

# Test system: Micrococcus lysodeixticus IFO 3333
# Experiment: antimicrobial activity, MIC
# Assay type: cell-based
# Conditions: Micrococcus, IFO3333
row,Compound,MIC
1,"CCCOc1ccccc1C(=CSc1ccccc1)n1ccnc1 (single isomer, unassigned) [Compound 64]",1.56 µg/mL

# Same assay, conditions: Micrococcus, IFO3333, Micrococcus lysodeixticus IFO 3333; read-out: MIC
row,Compound,MIC
1,"CCCCSC=C(c1ccccc1OCCC)n1ccnc1 (single isomer, unassigned) [Compound 46]",3.12 µg/mL

# Test system: Microsporum cookei IFO 8303
# Experiment: antimicrobial activity, MIC
# Assay type: cell-based
# Conditions: Microsporum cookei IFO 8303
row,Compound,MIC
1,"CCCOc1ccccc1C(=CSc1ccccc1)n1ccnc1 (single isomer, unassigned) [Compound 64]",12.5 µg/mL

# Same assay, conditions: Paraphyton cookei, IFO8303, Microsporum cookei IFO 8303; read-out: MIC
row,Compound,MIC
1,"CCCCSC=C(c1ccccc1OCCC)n1ccnc1 (single isomer, unassigned) [Compound 46]",1.56 µg/mL

# Test system: Staphylococcus aureus Smith
# Experiment: antimicrobial activity, MIC
# Assay type: cell-based
# Conditions: Staphylococcus aureus, read-out: MIC
row,Compound,MIC
1,"CCCOc1ccccc1C(=CSc1ccccc1)n1ccnc1 (single isomer, unassigned) [Compound 64]",12.5 µg/mL
2,"CCCCSC=C(c1ccccc1OCCC)n1ccnc1 (single isomer, unassigned) [Compound 46]",12.5 µg/mL

# Test system: Candida albicans NHL 4019
# Experiment: antimicrobial activity, MIC
# Assay type: cell-based
# Conditions: Candida albicans, NHL4019, Candida albicans NHL 4019; read-out: MIC
row,Compound,MIC
1,"CCCOc1ccccc1C(=CSc1ccccc1)n1ccnc1 (single isomer, unassigned) [Compound 64]",> 100 µg/mL
2,"CCCCSC=C(c1ccccc1OCCC)n1ccnc1 (single isomer, unassigned) [Compound 46]",25 µg/mL

# Test system: Saccharomyces ruxii 6507
# Experiment: antimicrobial activity, MIC
# Assay type: cell-based
# Conditions: Saccharomyces ruxii 6507; read-out: MIC
row,Compound,MIC
1,"CCCCSC=C(c1ccccc1OCCC)n1ccnc1 (single isomer, unassigned) [Compound 46]",0.78 µg/mL

# Same assay, conditions: Saccharomyces, 6507, Saccharomyces ruxii 6507
row,Compound,MIC
1,"CCCOc1ccccc1C(=CSc1ccccc1)n1ccnc1 (single isomer, unassigned) [Compound 64]",1.56 µg/mL

# Test system: Trichophyton rubrum NHL J
# Experiment: antimicrobial activity, MIC
# Assay type: cell-based
# Conditions: Trichophyton rubrum NHL J
row,Compound,MIC
1,"CCCOc1ccccc1C(=CSc1ccccc1)n1ccnc1 (single isomer, unassigned) [Compound 64]",< 0.2 µg/mL

# Same assay, conditions: Trichophyton rubrum, Trichophyton rubrum NHL J; read-out: MIC
row,Compound,MIC
1,"CCCCSC=C(c1ccccc1OCCC)n1ccnc1 (single isomer, unassigned) [Compound 46]",< 0.2 µg/mL

# Test system: Sarcina lutea ATCC 9341
# Experiment: antimicrobial activity, MIC
# Assay type: cell-based
# Conditions: Micrococcus luteus, ATCC9341, Sarcina lutea ATCC 9341; read-out: MIC
row,Compound,MIC
1,"CCCCSC=C(c1ccccc1OCCC)n1ccnc1 (single isomer, unassigned) [Compound 46]",6.25 µg/mL

# Same assay, conditions: Sarcina lutea ATCC 9341
row,Compound,MIC
1,"CCCOc1ccccc1C(=CSc1ccccc1)n1ccnc1 (single isomer, unassigned) [Compound 64]",6.25 µg/mL

# Test system: Aspergillus oryzae IMF 4014
# Experiment: antimicrobial activity, MIC
# Assay type: cell-based
# Conditions: Aspergillus oryzae IMF 4014
row,Compound,MIC
1,"CCCOc1ccccc1C(=CSc1ccccc1)n1ccnc1 (single isomer, unassigned) [Compound 64]",6.25 µg/mL

# Same assay, conditions: Aspergillus oryzae, IMF4014, Aspergillus oryzae IMF 4014; read-out: MIC
row,Compound,MIC
1,"CCCCSC=C(c1ccccc1OCCC)n1ccnc1 (single isomer, unassigned) [Compound 46]",0.78 µg/mL

# Test system: Microsporum audounii IFO 6074
# Experiment: antimicrobial activity, MIC
# Assay type: cell-based
# Conditions: Microsporum audounii IFO 6074
row,Compound,MIC
1,"CCCOc1ccccc1C(=CSc1ccccc1)n1ccnc1 (single isomer, unassigned) [Compound 64]",< 0.2 µg/mL

# Same assay, conditions: Microsporum, IFO6074, Microsporum audounii IFO 6074; read-out: MIC
row,Compound,MIC
1,"CCCCSC=C(c1ccccc1OCCC)n1ccnc1 (single isomer, unassigned) [Compound 46]",< 0.2 µg/mL

# Test system: Saccharomyces cerevisiae ATCC 9763
# Experiment: antimicrobial activity, MIC
# Assay type: cell-based
# Conditions: Saccharomyces cerevisiae, ATCC9763, Saccharomyces cerevisiae ATCC 9763; read-out: MIC
row,Compound,MIC
1,"CCCOc1ccccc1C(=CSc1ccccc1)n1ccnc1 (single isomer, unassigned) [Compound 64]",50 µg/mL
2,"CCCCSC=C(c1ccccc1OCCC)n1ccnc1 (single isomer, unassigned) [Compound 46]",< 0.2 µg/mL

# Test system: Aspergillus niger ATCC 9642
# Experiment: antimicrobial activity, MIC
# Assay type: cell-based
# Conditions: Aspergillus niger ATCC 9642
row,Compound,MIC
1,"CCCOc1ccccc1C(=CSc1ccccc1)n1ccnc1 (single isomer, unassigned) [Compound 64]",12.5 µg/mL

# Same assay, conditions: Aspergillus niger, ATCC9642, Aspergillus niger ATCC 9642; read-out: MIC
row,Compound,MIC
1,"CCCCSC=C(c1ccccc1OCCC)n1ccnc1 (single isomer, unassigned) [Compound 46]",1.56 µg/mL

# Test system: Trichophyton mentagrophytes IFO 5812
# Experiment: antimicrobial activity, MIC
# Assay type: cell-based
# Conditions: Trichophyton mentagrophytes IFO 5812
row,Compound,MIC
1,"CCCOc1ccccc1C(=CSc1ccccc1)n1ccnc1 (single isomer, unassigned) [Compound 64]",< 0.2 µg/mL

# Same assay, conditions: Trichophyton mentagrophytes, IFO5812, Trichophyton mentagrophytes IFO 5812; read-out: MIC
row,Compound,MIC
1,"CCCCSC=C(c1ccccc1OCCC)n1ccnc1 (single isomer, unassigned) [Compound 46]",< 0.2 µg/mL

# Test system: Trichophyton tonsurans IFO 5928
# Experiment: antimicrobial activity, MIC
# Assay type: cell-based
# Conditions: Trichophyton tonsurans IFO 5928
row,Compound,MIC
1,"CCCOc1ccccc1C(=CSc1ccccc1)n1ccnc1 (single isomer, unassigned) [Compound 64]",3.12 µg/mL

# Same assay, conditions: Trichophyton tonsurans, IFO5928, Trichophyton tonsurans IFO 5928; read-out: MIC
row,Compound,MIC
1,"CCCCSC=C(c1ccccc1OCCC)n1ccnc1 (single isomer, unassigned) [Compound 46]",< 0.2 µg/mL
